Source: paper PMC11845477, “Exploring the principles behind antibiotics with limited resistance” (Nature Communications, 2025)
Several values for one entry are separate records, joined by “and”; a condition that tells them apart may be missing. Equal entries are not always repeated. Where two headings read alike, the source gives them in different places. Where a SMILES comes first, the peptide text is derived from it. Bridges are numbered along the chain shown (N, C = ends). [ ]: non-standard residue; d: D form. The star is where a group is joined. X2 = CC[C@H](C)CCCCC(=O)*; Dab = NCC[C@H](N)C(=O)O

Legend:
[1] = system: P. aeruginosa ATCC BAA-3107 (SEN) and P. aeruginosa LESB58 (MDR); assay: Frequency-of-resistance (FoR) assay, relative MIC of mutants; format: cell-based, Pseudomonas aeruginosa
Method: The susceptibility of antibiotics to resistance development was evaluated in two strains of each bacterial species: a multidrug-resistant strain and an antibiotic-sensitive strain of Escherichia coli, Klebsiella pneumoniae, Acinetobacter baumannii, and Pseudomonas aeruginosa. To explore first-step resistance, we previously used a standard protocol for spontaneous frequency-of-resistance analysis (FoR assay) at multiple concentrations of each antibiotic[10],[28],[31]–[33]. […] For all other combinations, approximately 10^10 bacterial cells were exposed to one of each antibiotic on agar plates for two days at concentrations where the given strain is susceptible. We examined resistance levels by contrasting the minimum inhibitory concentration (MICs) of the mutated strains to the original wild-type bacterial strain (i.e., relative MIC).
To estimate the frequency of spontaneous mutations that confer resistance in a microbial population, we conducted a frequency of resistance (FoR) assay following established protocols[10],[31]–[33]. […] Prior to plating, bacteria were grown overnight in MHB medium at 37 °C and 250 RPM, then centrifuged and washed in MHB. All experiments were performed in triplicate, and plates were incubated at 37 °C for 48 hours. Total colony-forming units (CFUs) were determined by plating appropriate dilutions onto antibiotic-free MHB agar. Resistance frequencies were calculated by dividing the number of resistant colonies by the initial viable cell count. From the plates with the highest antibiotic concentration, ten colonies were selected for MIC determination and whole-genome sequencing.
A robotic liquid handling system was used to automatically prepare a 11 to 16-step serial dilution in 384-well microtiter plates (Greiner). A final concentration of 5 × 10^5 bacterial cells per mL were inoculated into each well containing 60 µL MHB medium. Bacterial cultures were incubated at 37 °C with continuous shaking (Infors shaker, 900 rpm with 3 mm throw) for 18 hours (2 replicates from each). Cell growth was monitored by measuring the optical density (OD600 values, using Biotek Synergy microplate reader). MIC was defined as the antibiotic concentration of complete growth inhibition (i.e., OD600 < 0.05). Relative MIC was calculated as follows:1 relativeMIC=MICevolved/MICancestor […]
Supplementary Figure 3. Resistance levels following the frequency of resistance assay across bacterial strains. The level of resistance was measured as the fold change in relative MIC between evolved and ancestral strains. Data are grouped by bacterial strain (A. baumannii (AB), E. coli (EC), K. pneumoniae (KP), and P. aeruginosa (PA)) and categorized as either multidrug-resistant (MDR) or sensitive (SEN). Each data point represents a laboratory evolved line, and boxplots show the median, first and third quartiles, with whiskers indicating the 5th and 95th percentiles. […]
analysis was performed using two-sided Dunn’s post-hoc test with Benjamini-Hochberg correction for multiple comparisons (**/ * indicates p < 0.01/ 0.05). For detailed information on antibiotic and bacterial species, see Supplementary Table 1. For mode of action groups, refer to Table 1. Source data are provided as a Source Data file.

[2] = system: K. pneumoniae; format: cell-based, Klebsiella pneumoniae
Method: We employed image analysis to quantify bacterial survival under fixed antibiotic concentrations (10xMIC for 4 hours) on E. coli, A. baumannii, K. pneumoniae, and P. aeruginosa. […] Survival rate was quantified by calculating the ratio of the viable cells after antibiotic treatment and the total initial viable cell count.
Fig. 9 Killing kinetics of the studied antibiotics. a Bacterial survival rate in response to toxic antibiotic exposure. […] The bars indicate the survival rate (log10) compared to the untreated initial viable cell count (see “Methods”). Data are presented as mean values of 5 biological replicates ± SEM. The antibiotic group differentiation is denoted by color. […] Survival was estimated by measuring cell viability (colony-forming units/ml) of 2 biologically independent strains following a 4-hour exposure to different concentrations of 16 antibiotics on E. coli ATCC25922 (for further details, see “Methods”). The antibiotic concentration that kills 99.9% of the E. coli population is indicated as a vertical dotted line (see Supplementary Data 5). Error bars represent standard error calculated from the colony counts by Poisson’s model. A Hill function was fitted to the dose-response data from two biological replicates, producing sigmoidal curves (Supplementary Data 5). The Hill coefficient reflects how steeply the survival rate decreases in response to increasing antibiotic concentration ([…]). […] X-axis label colors indicate mode of action groups. For detailed information on antibiotic and bacterial species, see Supplementary Data 1. Source data are provided as a Source Data file.
In this current study, the killing kinetics of each antibiotic was measured according to a previously established experimental protocol[62] with minor modifications. During this assay, the bacterial cultures were exposed to antibiotics in 96-well assay plates and their viability after 4 hours of exposure was quantified by two methods: i) microplating and colony counting or ii) fluorescent staining of cells and counting of the fluorescent units.
Specifically, these experiments were performed in the following steps: (1) Preparation of bacterial stocks. Single colonies from each strain were isolated and grown overnight in MHB medium at 37 °C, 160 rpm. In case of the fluorescently tagged E. coli strains, the medium was supplemented with 10 μg/mL chloramphenicol, to maintain the pZS2R plasmid. Overnight cultures were diluted 1:5000 and grown to an optical density at 600 nm (OD600) of 0.25. These cultures were concentrated by centrifugation and small aliquots of 50 μL containing ~2.2 × 10^9 cells were frozen in glycerol (stored at −80 °C). (2) Preparing assay plates with antibiotics. 96-well plates were filled with 235 μL MHB and supplemented with antibiotics using an automated digital dispenser (D300e, Tecan). In the case of SCH79797, we used minimal media. […] For testing the clearance efficacy of each antibiotic at a single lethal dose, the 10x of the MIC for each antibiotic-strain pair were prepared in at least three replicates. (3) Antibiotic exposure. During the dose response assay, frozen cultures of the E. coli strains expressing YFP and mCherry were thawed and mixed at a 1:1 ratio, diluted 1:1000 in 30 mL MHB and incubated for 45 min at 37 °C and 160 rpm. During the single-dose assay, the frozen cultures of experimental strains (E. coli, K. pneumoniae, A. baumannii) were also thawed and diluted 1:1000 in 30 mL MHB and incubated at 37 °C to reach an OD of 0.25 and 160 rpm. Following this incubation phase, these bacterial cultures were then aliquoted into the 96-well deep-well antibiotic plates (15 μL culture; total volume of 250 μL) at an inoculum density of about 10^7 CFU.

[3] = P. aeruginosa ATCC BAA 3107 (PA-SEN), evolved line 1
[4] = P. aeruginosa ATCC BAA 3107 (PA-SEN), evolved line 1, evolved vs ancestor
[5] = P. aeruginosa ATCC BAA 3107 (PA-SEN), evolved line 2
[6] = P. aeruginosa ATCC BAA 3107 (PA-SEN), evolved line 2, evolved vs ancestor
[7] = P. aeruginosa ATCC BAA 3107 (PA-SEN), evolved line 3
[8] = P. aeruginosa ATCC BAA 3107 (PA-SEN), evolved line 3, evolved vs ancestor
[9] = P. aeruginosa LESB 58 (PA-MDR), evolved line 1
[10] = P. aeruginosa LESB 58 (PA-MDR), evolved line 1, evolved vs ancestor
[11] = P. aeruginosa LESB 58 (PA-MDR), evolved line 2
[12] = P. aeruginosa LESB 58 (PA-MDR), evolved line 2, evolved vs ancestor
[13] = P. aeruginosa LESB 58 (PA-MDR), evolved line 3
[14] = P. aeruginosa LESB 58 (PA-MDR), evolved line 3, evolved vs ancestor
[15] = Klebsiella pneumoniae, survival at 10xMIC for 4 hours, single replicates, (fig 9a source data)

CNC(C)C1CCC(N)C(OC2C(N)CC(N)C(OC3OCC(C)(O)C(NC)C3O)C2O)O1 (centres unmarked) [Gentamicin]
MIC of evolved line [1, 3]: 8 µg/mL
Relative MIC [1, 4]: 8
MIC of evolved line [1, 5]: 8 µg/mL
Relative MIC [1, 6]: 8
MIC of evolved line [1, 7]: 8 µg/mL
Relative MIC [1, 8]: 8
Survival rate (log10) ([2]; Klebsiella pneumoniae, survival at 10xMIC for 4 hours, single replicates, (fig 9a source data), listed as GEN): -0.9685 log10 and -0.989 log10 and -1.08 log10 and -0.8281 log10 and -1.091 log10

CN[C@@H]1[C@@H](O[C@H]2O[C@H](CO)[C@@H](N)[C@H](O)[C@H]2O)OC2C[C@@H](N)[C@@H](O[C@H]3[C@H](O)[C@@H](O)[C@H](N)C[C@@H]3N)OC2[C@@H]1O (some centres unmarked) [Apramycin]
Survival rate (log10) ([2]; Klebsiella pneumoniae, survival at 10xMIC for 4 hours, single replicates, (fig 9a source data), listed as APR): -1.19 log10 and -1.1 log10 and -1.062 log10 and -0.9595 log10 and -0.945 log10

Nc1nc(-n2cc(C(=O)O)c(=O)c3cc(F)c(N4CC(O)C4)c(Cl)c32)c(F)cc1F [Delafloxacin]
MIC of evolved line [1, 3]: 2 µg/mL
MIC of evolved line [1, 5]: 2 µg/mL
MIC of evolved line [1, 7]: 2 µg/mL
MIC of evolved line [1, 9]: 8 µg/mL
Relative MIC [1, 10]: 4
MIC of evolved line [1, 11]: 8 µg/mL
Relative MIC [1, 12]: 4
MIC of evolved line [1, 13]: 4 µg/mL
Relative MIC [1, 14]: 2
Survival rate (log10) ([2]; Klebsiella pneumoniae, survival at 10xMIC for 4 hours, single replicates, (fig 9a source data), listed as DEL): -0.7389 log10 and -0.7966 log10 and -0.7399 log10 and -1.048 log10 and -0.8397 log10

POL7306
Survival rate (log10) [2]: -3.973 log10 and -4.193 log10
Survival rate (log10) [2, 15]: -4.671 log10

C[C@H]1c2cccc(O)c2C(=O)C2=C(O)[C@]3(O)C(=O)C(C(N)=O)=C(O)[C@@H](N(C)C)[C@@H]3[C@@H](O)[C@@H]21 [Doxycycline]
Relative MIC [1, 4]: 32
Relative MIC [1, 6]: 32
Relative MIC [1, 8]: 32

CC(C)c1ccc(Cn2ccc3c4c(N)nc(NC5CC5)nc4ccc32)cc1 [SCH79797]
bacterial survival after toxic antibiotic exposure ([2]; 10xMIC for 4 hours): eliminated the entire bacterial population
Survival rate (log10) [2, 15]: -6 log10

COc1c(N2C[C@@H]3CCCN[C@@H]3C2)c(F)cc2c(=O)c(C(=O)O)cn(C3CC3)c12 [Moxifloxacin]
MIC of evolved line [1, 3]: 16 µg/mL
MIC of evolved line [1, 5]: 32 µg/mL
MIC of evolved line [1, 7]: 32 µg/mL

CC[C@H](C)CCCCC(=O)N[C@@H](CCN)C(=O)N[C@H](C(=O)N[C@@H](CCN)C(=O)N[C@H]1CCNC(=O)[C@H]([C@@H](C)O)NC(=O)[C@H](CCN)NC(=O)[C@H](CCN)NC(=O)[C@H](CC(C)C)NC(=O)[C@@H](Cc2ccccc2)NC(=O)[C@H](CCN)NC1=O)[C@@H](C)O [Polymyxin B] (X2-[Dab]T[Dab][Dab][Dab][dF]L[Dab][Dab]T; lactam 4-C (inferred); N-terminus assumed)
Survival rate (log10) ([2]; Klebsiella pneumoniae, survival at 10xMIC for 4 hours, single replicates, (fig 9a source data), listed as PMB): -3.309 log10 and -3.392 log10 and -3.139 log10 and -2.914 log10 and -3.825 log10

C[C@@H](O)[C@H]1C(=O)N2C(C(=O)O)=C(S[C@@H]3CN[C@H](C(=O)N(C)C)C3)[C@H](C)[C@H]12 [Meropenem]
MIC of evolved line [1, 3]: 2 µg/mL
MIC of evolved line [1, 5]: 2 µg/mL
MIC of evolved line [1, 7]: 2 µg/mL
MIC of evolved line [1, 9]: 32 µg/mL
MIC of evolved line [1, 11]: 32 µg/mL
MIC of evolved line [1, 13]: 32 µg/mL

Tridecaptin M152-P3
Survival rate (log10) ([2]; Klebsiella pneumoniae, survival at 10xMIC for 4 hours, single replicates, (fig 9a source data), listed as TRD): -2.838 log10 and -3.629 log10 and -3.392 log10 and -4.671 log10

polymyxin-B
MIC of evolved line [1, 3]: 1 µg/mL
MIC of evolved line [1, 5]: 1 µg/mL
MIC of evolved line [1, 7]: 1 µg/mL
MIC of evolved line [1, 9]: 4 µg/mL
MIC of evolved line [1, 11]: 4 µg/mL
MIC of evolved line [1, 13]: 4 µg/mL

C[C@@H](O)[C@H]1C(=O)N2C(C(=O)O)=C(S[C@H]3CC[S@@+]([O-])C3)S[C@H]12 [Sulopenem]
Survival rate (log10) ([2]; Klebsiella pneumoniae, survival at 10xMIC for 4 hours, single replicates, (fig 9a source data), listed as SUO): -0.7658 log10 and -1.06 log10 and -0.9043 log10 and -0.6919 log10 and -1.504 log10

colistin
Survival rate (log10) ([2]; Klebsiella pneumoniae, survival at 10xMIC for 4 hours, single replicates, (fig 9a source data), listed as COL): -3.893 log10 and -3.973 log10 and -4.193 log10 and -4.37 log10

O=c1ccc2ncc(=O)n3c2n1C[C@H]3CN1CCC(NCc2cc3c(cn2)OCCC3)CC1 [Gepotidacin]
MIC of evolved line [1, 3]: 64 µg/mL
Relative MIC [1, 4]: 16
MIC of evolved line [1, 5]: 64 µg/mL
Relative MIC [1, 6]: 16
MIC of evolved line [1, 7]: 64 µg/mL
Relative MIC [1, 8]: 16
MIC of evolved line [1, 9]: 32 µg/mL
Relative MIC [1, 10]: 8
MIC of evolved line [1, 11]: 32 µg/mL
Relative MIC [1, 12]: 8
MIC of evolved line [1, 13]: 16 µg/mL
Relative MIC [1, 14]: 4
